Test results from US20160046618A1, “Cyclopropyl Fused Thiazin-2-Amine Compounds as Beta-Secretase Inhibitors and Methods of Use” (AMGEN INC., priority 2014, published 2016).

Tests used:
human recombinant BACE1 = human recombinant BACE1 (Homo sapiens (Human), UniProt P56817); experiment: In vitro enzymatic BACE1 FRET assay; format: biochemical; conditions: read-out: IC50 IP (μM) BACE1 enzyme
Procedure, shortened: (§1)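 Protease purified by Ni-NTA chromatography; start with FRET substrate (50 nM); incubate 1 h; quench with Tris to neutral pH; read fluorescence ex 488 / em 590 nm.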

human recombinant BACE2 = human recombinant BACE2 (Homo sapiens (Human), UniProt Q9Y5Z0); experiment: In vitro enzymatic BACE2 FRET assay; format: biochemical; conditions: read-out: IC50 IP (μM) BACE2 enzyme
Procedure, shortened: as §1

[1] = system: Aβ40 in conditioned medium of cells stably expressing Amyloid Precursor Protein (APP); experiment: In vitro BACE-1 cell-based assay (Aβ40 sandwich ELISA); conditions: read-out: IC50 IP (μM) BACE1 cell
Procedure, shortened: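 APP-expressing cells treated 24 h at 37 °C with compound in 10-point dose response (top 100 μM or 10 μM, 0.1% DMSO final). Secreted Aβ40 in conditioned medium quantified by sandwich ELISA (pAb40 capture, biotinylated 6E10 detection, time-resolved europium fluorescence); IC50 from percent inhibition versus concentration.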

Recombinant Cat D = Recombinant Cat D (Homo sapiens (Human), UniProt P07339); experiment: In vitro enzymatic Cathepsin D (Cat D) FRET assay; format: biochemical; conditions: read-out: IC50 IP (μM) CatD
Procedure, shortened: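 CHO-expressed enzyme; buffer 0.05 M citrate pH 3.5, 5 mM CHAPS, 10% DMSO final. Start with FRET substrate 20 nM, 1 h incubation, Tris stop (pH to neutral), fluorescence ex 500 nm/em 580 nm.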

Chain of human recombinant BACE1 (P56817 46-501): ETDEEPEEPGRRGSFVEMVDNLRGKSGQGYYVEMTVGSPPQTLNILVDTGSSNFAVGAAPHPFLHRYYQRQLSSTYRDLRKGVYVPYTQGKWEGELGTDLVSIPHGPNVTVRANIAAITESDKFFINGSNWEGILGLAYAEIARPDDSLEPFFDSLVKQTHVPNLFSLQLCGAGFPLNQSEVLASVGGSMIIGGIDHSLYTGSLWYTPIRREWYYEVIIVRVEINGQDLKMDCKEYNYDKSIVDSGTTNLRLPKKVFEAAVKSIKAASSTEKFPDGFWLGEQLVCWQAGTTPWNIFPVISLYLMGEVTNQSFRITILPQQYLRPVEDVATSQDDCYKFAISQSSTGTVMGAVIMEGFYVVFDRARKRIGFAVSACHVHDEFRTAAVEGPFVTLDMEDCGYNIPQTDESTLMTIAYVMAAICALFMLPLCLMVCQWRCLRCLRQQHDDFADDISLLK
Chain of human recombinant BACE2 (Q9Y5Z0 63-518): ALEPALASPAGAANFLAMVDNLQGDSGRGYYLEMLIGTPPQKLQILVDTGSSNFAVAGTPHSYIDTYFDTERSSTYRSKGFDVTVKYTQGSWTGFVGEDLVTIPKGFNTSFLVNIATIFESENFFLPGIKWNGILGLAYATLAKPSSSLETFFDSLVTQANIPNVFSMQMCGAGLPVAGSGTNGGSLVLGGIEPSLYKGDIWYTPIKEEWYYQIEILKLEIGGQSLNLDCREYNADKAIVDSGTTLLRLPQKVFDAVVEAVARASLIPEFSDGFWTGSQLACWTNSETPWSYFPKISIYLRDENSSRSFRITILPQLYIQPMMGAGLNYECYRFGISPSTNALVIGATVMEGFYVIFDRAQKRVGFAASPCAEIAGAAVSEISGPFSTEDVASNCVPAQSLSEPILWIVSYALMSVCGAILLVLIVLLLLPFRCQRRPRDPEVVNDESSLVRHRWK
Chain of Recombinant Cat D (P07339 65-412): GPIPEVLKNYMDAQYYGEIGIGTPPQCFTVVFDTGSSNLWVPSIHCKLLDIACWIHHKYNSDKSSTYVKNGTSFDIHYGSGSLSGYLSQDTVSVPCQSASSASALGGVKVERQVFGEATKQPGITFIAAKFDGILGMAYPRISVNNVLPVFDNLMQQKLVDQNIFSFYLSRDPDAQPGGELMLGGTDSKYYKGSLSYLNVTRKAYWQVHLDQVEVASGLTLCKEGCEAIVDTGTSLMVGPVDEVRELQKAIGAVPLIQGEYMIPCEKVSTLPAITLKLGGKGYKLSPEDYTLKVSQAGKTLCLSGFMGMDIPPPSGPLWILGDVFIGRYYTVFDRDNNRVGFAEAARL

SMILES | IC50 (human recombinant BACE1) | IC50 (human recombinant BACE2) | IC50 [1] | IC50 (Recombinant Cat D)
NC1=N[C@](CF)(c2cc(Nc3nncc4cc(Cl)cnc34)ccc2F)[C@@H]2C[C@@H]2S1 [Example 754, (1S,5S,6S)-5-(5-((3-chloropyrido[2,3-d]pyridazin-8-yl)amino)-2-fluorophenyl)-5-(fluoromethyl)-2-thia-4-azabicyclo[4.1.0]hept-3-en-3-amine] | 0.0454 µM | 0.00588 µM | 0.0781 µM | 844 µM
CCOC(=O)/C=C/[C@]12C[C@H]1[C@@](CF)(c1cc(NC(=O)c3ccc(Cl)cn3)ccc1F)N=C(N)S2 [Example 755, (E)-ethyl 3-((1R,5S,6S)-3-amino-5-(5-(5-chloropicolinamido)-2-fluorophenyl)-5-(fluoromethyl)-2-thia-4-azabicyclo[4.1.0]hept-3-en-1-yl)acrylate] | 0.00147 µM | < 0.00203 µM | 0.00838 µM | 250 µM
NC1=N[C@](CF)(c2cc(NC(=O)c3ccc(Cl)cn3)ccc2F)[C@@H]2C[C@]2(/C=C/CO)S1 [Example 756, N-(3-((1R,5S,6S)-3-amino-5-(fluoromethyl)-1-((E)-3-hydroxyprop-1-en-1-yl)-2-thia-4-azabicyclo[4.1.0]hept-3-en-5-yl)-4-fluorophenyl)-5-chloropicolinamide] | 0.00373 µM | < 0.00203 µM | 0.00659 µM | > 400 µM
NC1=N[C@](CF)(c2cc(NC(=O)c3ccc(Cl)cn3)ccc2F)[C@@H]2C[C@]2(/C=C/C(=O)O)S1 [Example 757, (E)-3-((1R,5S,6S)-3-amino-5-(5-(5-chloropicolinamido)-2-fluorophenyl)-5-(fluoromethyl)-2-thia-4-azabicyclo[4.1.0]hept-3-en-1-yl)acrylic acid] | 0.000176 µM | < 0.00203 µM | 0.0498 µM | 458 µM
NC1=N[C@](CF)(c2cc(NC(=O)c3ccc(Cl)cn3)ccc2F)[C@@H]2C[C@]2(CCCO)S1 [Example 758, N-(3-((1S,5S,6S)-3-amino-5-(fluoromethyl)-1-(3-hydroxypropyl)-2-thia-4-azabicyclo[4.1.0]hept-3-en-5-yl)-4-fluorophenyl)-5-chloropicolinamide] | 0.00156 µM | < 0.00203 µM | 0.00195 µM | 2070 µM
NC(=O)/C=C/[C@]12C[C@H]1[C@@](CF)(c1cc(NC(=O)c3ccc(Cl)cn3)ccc1F)N=C(N)S2 [Example 759, N-(3-((1R,5S,6S)-3-amino-1-((E)-3-amino-3-oxoprop-1-en-1-yl)-5-(fluoromethyl)-2-thia-4-azabicyclo[4.1.0]hept-3-en-5-yl)-4-fluorophenyl)-5-chloropicolinamide] | 0.00101 µM | < 0.00203 µM | 0.00265 µM | > 400 µM
CNC(=O)/C=C/[C@]12C[C@H]1[C@@](CF)(c1cc(NC(=O)c3ccc(Cl)cn3)ccc1F)N=C(N)S2 [Example 760, N-(3-((1R,5S,6S)-3-amino-5-(fluoromethyl)-1-((E)-3-(methylamino)-3-oxoprop-1-en-1-yl)-2-thia-4-azabicyclo[4.1.0]hept-3-en-5-yl)-4-fluorophenyl)-5-chloropicolinamide] | 0.000415 µM | < 0.00203 µM | 0.00265 µM | 779 µM
CN(C)C(=O)/C=C/[C@]12C[C@H]1[C@@](CF)(c1cc(NC(=O)c3ccc(Cl)cn3)ccc1F)N=C(N)S2 [Example 761, N-(3-((1R,5S,6S)-3-amino-1-((E)-3-(dimethylamino)-3-oxoprop-1-en-1-yl)-5-(fluoromethyl)-2-thia-4-azabicyclo[4.1.0]hept-3-en-5-yl)-4-fluorophenyl)-5-chloropicolinamide] | 0.000794 µM | < 0.00203 µM | 0.00152 µM | 364 µM
C#CCOc1cnc2c(Nc3ccc(F)c([C@@]4(CF)N=C(N)S[C@H]5C[C@H]54)c3)nccc2n1 [Example 762, N-(3-((1S,5S,6S)-3-amino-5-(fluoromethyl)-2-thia-4-azabicyclo[4.1.0]hept-3-en-5-yl)-4-fluorophenyl)-2-(2-propyn-1-yloxy)pyrido[3,4-b]pyrazin-5-amine] | 0.00303 µM | 0.0384 µM | 0.0142 µM | 669 µM
NC1=N[C@](CF)(c2cc(Nc3ncnc4cc(OCc5ncco5)cnc34)ccc2F)[C@@H]2C[C@@H]2S1 [Example 763, N-(3-((1S,5S,6S)-3-amino-5-(fluoromethyl)-2-thia-4-azabicyclo[4.1.0]hept-3-en-5-yl)-4-fluorophenyl)-7-(1,3-oxazol-2-ylmethoxy)pyrido[3,2-d]pyrimidin-4-amine] | 0.00849 µM | 0.239 µM | 0.0048 µM | 1110 µM
NC1=N[C@](CF)(c2cc(NC(=O)c3ccc(Cl)cn3)ccc2F)[C@@H]2C[C@]2(/C=C/C(=O)N2CCOCC2)S1 [Example 764, N-(3-((1R,5S,6S)-3-amino-5-(fluoromethyl)-1-((E)-3-morpholino-3-oxoprop-1-en-1-yl)-2-thia-4-azabicyclo[4.1.0]hept-3-en-5-yl)-4-fluorophenyl)-5-chloropicolinamide] | 0.00073 µM | < 0.00203 µM | 0.000856 µM | 518 µM
CN(C)C(=O)CC[C@]12C[C@H]1[C@@](CF)(c1cc(NC(=O)c3ccc(Cl)cn3)ccc1F)N=C(N)S2 [Example 765, N-(3-((1S,5S,6S)-3-amino-1-(3-(dimethylamino)-3-oxopropyl)-5-(fluoromethyl)-2-thia-4-azabicyclo[4.1.0]hept-3-en-5-yl)-4-fluorophenyl)-5-chloropicolinamide] | 0.000706 µM | < 0.00203 µM | 0.0011 µM | 1070 µM
COC1CN(C(=O)/C=C/[C@]23C[C@H]2[C@@](CF)(c2cc(NC(=O)c4ccc(Cl)cn4)ccc2F)N=C(N)S3)C1 [Example 766, N-(3-((1R,5S,6S)-3-amino-5-(fluoromethyl)-1-((E)-3-(3-methoxyazetidin-1-yl)-3-oxoprop-1-en-1-yl)-2-thia-4-azabicyclo[4.1.0]hept-3-en-5-yl)-4-fluorophenyl)-5-chloropicolinamide] | 0.00105 µM | < 0.00203 µM | 0.0031 µM | 848 µM
COCCNC(=O)/C=C/[C@]12C[C@H]1[C@@](CF)(c1cc(NC(=O)c3ccc(Cl)cn3)ccc1F)N=C(N)S2 [Example 767, N-(3-((1R,5S,6S)-3-amino-5-(fluoromethyl)-1-((E)-3-((2-methoxyethyl)amino)-3-oxoprop-1-en-1-yl)-2-thia-4-azabicyclo[4.1.0]hept-3-en-5-yl)-4-fluorophenyl)-5-chloropicolinamide] | 0.00102 µM | < 0.00203 µM | 0.00143 µM | 602 µM
C#CCOc1cnc2c(Nc3ccc(F)c([C@@]4(CF)N=C(N)S[C@@]5(/C=C/C(=O)N(C)C)C[C@H]54)c3)nccc2n1 [Example 768, (2E)-3-((1R,5S,6S)-3-amino-5-(fluoromethyl)-5-(2-fluoro-5-((2-(2-propyn-1-yloxy)pyrido[3,4-b]pyrazin-5-yl)amino)phenyl)-2-thia-4-azabicyclo[4.1.0]hept-3-en-1-yl)-N,N-dimethyl-2-propenamide] | 0.00119 µM | 0.00612 µM | 0.00113 µM | 406 µM
CN(C)C(=O)/C=C/[C@]12C[C@H]1[C@@](CF)(c1cc(Nc3nccc4nc(OCc5ncco5)cnc34)ccc1F)N=C(N)S2 [Example 769, (2E)-3-((1R,5S,6S)-3-amino-5-(fluoromethyl)-5-(2-fluoro-5-((2-(1,3-oxazol-2-ylmethoxy)pyrido[3,4-b]pyrazin-5-yl)amino)phenyl)-2-thia-4-azabicyclo[4.1.0]hept-3-en-1-yl)-N,N-dimethyl-2-propenamide] | 0.00143 µM | 0.023 µM | 0.00121 µM | 224 µM
CC#CCOc1cnc2c(Nc3ccc(F)c([C@@]4(CF)N=C(N)S[C@@]5(/C=C/C(=O)N(C)C)C[C@H]54)c3)nccc2c1 [Example 771, (2E)-3-((1R,5S,6S)-3-amino-5-(5-((3-(2-butyn-1-yloxy)-1,7-naphthyridin-8-yl)amino)-2-fluorophenyl)-5-(fluoromethyl)-2-thia-4-azabicyclo[4.1.0]hept-3-en-1-yl)-N,N-dimethyl-2-propenamide] | 0.00204 µM | 0.0786 µM | 0.00146 µM | 282 µM
NC1=N[C@](CF)(c2cc(NC(=O)c3ccc(Cl)cn3)ccc2F)[C@@H]2C[C@]2(/C=C/C(=O)N2CC(F)(F)C2)S1 [Example 772, N-(3-((1R,5S,6S)-3-amino-1-((1E)-3-(3,3-difluoro-1-azetidinyl)-3-oxo-1-propen-1-yl)-5-(fluoromethyl)-2-thia-4-azabicyclo[4.1.0]hept-3-en-5-yl)-4-fluorophenyl)-5-chloro-2-pyridinecarboxamide] | 0.000429 µM | < 0.00203 µM | 0.000972 µM | 82 µM
C#CCOc1cnc2c(Nc3ccc(F)c([C@@]4(CF)N=C(N)S[C@@]5(/C=C/C(=O)N6CC(F)(F)C6)C[C@H]54)c3)nccc2n1 [Example 773, N-(3-((1R,5S,6S)-3-amino-1-((1E)-3-(3,3-difluoro-1-azetidinyl)-3-oxo-1-propen-1-yl)-5-(fluoromethyl)-2-thia-4-azabicyclo[4.1.0]hept-3-en-5-yl)-4-fluorophenyl)-2-(2-propyn-1-yloxy)pyrido[3,4-b]pyrazin-5-amine] | 0.000423 µM | < 0.00203 µM | 0.00148 µM | 113 µM
